How the values were obtained:
[1] = Assay 1. Stability of multibiotic agents in a buffer; format: physicochemical; parameters: key to Assay 1 (% Remaining @ 24 hours): A: <25% of the tested compound remaining; B: 25-75% of the tested compound remaining; C: >75% of the tested compound remaining; D: no change in the amount of the tested compound; settings: for degradation in Assay 1 (in words): buffer stability; for Assay 1 (% Remaining @ 24 hours): phosphate buffer pH 2, 4, 6 and 8, RT, 2 μM, LC/MS/MS
Protocol: Assay 1. Stability of multibiotic agents in a buffer. This assay can be used for the assessment of the stability of a multibiotic agent at different physiological pH levels.
Compounds were diluted in DMSO, and the resulting solution was added in the appropriate quantity to phosphate buffer (pH levels 2, 4, 6, and 8) to reach a total sample concentration of 2 μM. Compounds were incubated at RT, and aliquots were removed at time points 0, 60, 120, 360 and 1440 minutes and analyzed for purity by LC/MS/MS.

[2] = Stability of multibiotic agents in Simulated Gastric Fluid (SGF); format: in vitro ADME; settings: simulated gastric fluid pH 1.6 with pepsin, 37° C., 1 μM
Summary of the method: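 Compounds were incubated at 1 μM final at 37 °C in simulated gastric fluid containing NaCl, pH 1.6, with FaSSIF powder and 0.1 mg/mL pepsin. Aliquots were taken at T0 and at regular intervals and quenched with acetonitrile. Degradation rates were determined by LC/MS.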

[3] = Stability of multibiotic agents in Simulated Intestinal Fluid (SIF); format: in vitro ADME; settings: simulated intestinal fluid pH 6.7 with pancreatin, 37° C., 1 μM
Summary of the method: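 Compounds at 1 μM final (from 1 mM DMSO stock) incubated at 37 °C with agitation in fresh SIF (FaSSIF plus pancreatin in pH 6.7 phosphate buffer). Aliquots taken at T0 and regular intervals, quenched with 1 volume acetonitrile. Degradation rate determined by LC/MS.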

| Compound | degradation in Assay 1 (in words) [1] | Assay 1 (% Remaining @ 24 hours) [1] | Assay 2 (SGF) (% Remaining @ 4 hours) [2] | Assay 3 (SIF) (% @ Remaining 4 hours) [3] |
| --- | --- | --- | --- | --- |
| O=C(CCCc1ccccc1)OC1OC[C@@H](OC(=O)CCCc2ccccc2)[C@H](OC(=O)CCCc2ccccc2)[C@H]1OC(=O)CCCc1ccccc1 (mixture of isomers) [Example 24, [(3R,4S,5R)-4,5,6-tris(4-phenylbutanoyloxy)tetrahydropyran-3-yl] 4-phenylbutanoate] | no apparent degradation | D | – | – |
| CCCC(=O)OC1OC[C@@H](OC(=O)CCC)[C@H](OC(=O)CCC)[C@H]1OC(=O)CCC (mixture of isomers) [Example 29, [(3R,4S,5R)-4,5,6-tri(butanoyloxy)tetrahydropyran-3-yl] butanoate] | no apparent degradation | D | – | – |
| CCCC(=O)OC[C@@H](OC(=O)CCC)[C@@H](OC(=O)CCC)[C@H](OC(=O)CCC)[C@@H](OC(=O)CCC)C(=O)Oc1ccc(/C=C/c2cc(OC(=O)[C@H](OC(=O)CCC)[C@@H](OC(=O)CCC)[C@H](OC(=O)CCC)[C@@H](COC(=O)CCC)OC(=O)CCC)cc(OC(=O)[C@H](OC(=O)CCC)[C@@H](OC(=O)CCC)[C@H](OC(=O)CCC)[C@@H](COC(=O)CCC)OC(=O)CCC)c2)cc1 [Example 164, [4-[(E)-2-[3,5-bis[[(2R,3S,4R,5R)-2,3,4,5,6-penta(butanoyloxy)hexanoyl]oxy]phenyl]vinyl]phenyl] (2R,3S,4R,5R)-2,3,4,5,6-penta(butanoyloxy)hexanoate] | – | – | B (25-75% of the tested compound remaining) | B (25-75% of the tested compound remaining) |
| CCC(=O)OC1OC[C@@H](OC(=O)CC)[C@H](OC(=O)CC)[C@H]1OC(=O)CC (stereo partly drawn) [Example 165, [(3R,4S,5R)-4,5,6-tri(propanoyloxy)tetrahydropyran-3-yl] propanoate] | – | – | C (>75% of the tested compound remaining) | A (<25% of the tested compound remaining) |
| CCC(=O)O[C@@H]1[C@@H](OC(=O)CC)[C@H](OC(=O)CC)CO[C@H]1O [Example 166, [(3R,4S,5R,6R)-6-hydroxy-4,5-di(propanoyloxy)tetrahydropyran-3-yl] propanoate] | – | – | C (>75% of the tested compound remaining) | B (25-75% of the tested compound remaining) |
| CC(=O)Oc1ccc(-c2oc3cc(OC(C)=O)cc(OC(C)=O)c3c(=O)c2OC(C)=O)cc1 [Example 169, [4-(3,5,7-triacetoxy-4-oxo-chromen-2-yl)phenyl] acetate] | – | – | C (>75% of the tested compound remaining) | A (<25% of the tested compound remaining) |
| CC(=O)Oc1ccc(C2CC(=O)c3c(OC(C)=O)cc(OC(C)=O)cc3O2)cc1 (stereo not drawn) [Example 170, [4-(5,7-diacetoxy-4-oxo-chroman-2-yl)phenyl] acetate] | – | – | C (>75% of the tested compound remaining) | A (<25% of the tested compound remaining) |
| CCCC(=O)Oc1ccc(C2CC(=O)c3c(OC(=O)CCC)cc(OC(=O)CCC)cc3O2)cc1 (stereo not drawn) [Example 171, [4-[5,7-di(butanoyloxy)-4-oxo-chroman-2-yl]phenyl] butanoate] | – | – | B (25-75% of the tested compound remaining) | A (<25% of the tested compound remaining) |
| C[C@@H](O)CCOC(=O)C[C@@H](C)O [Example 172, [(3R)-3-hydroxybutyl] (3R)-3-hydroxybutanoate] | – | – | C (>75% of the tested compound remaining) | C (>75% of the tested compound remaining) |
| CCCC(=O)O[C@H](C)CCOC(=O)C[C@@H](C)OC(=O)CCC [Example 173, [(3R)-3-butanoyloxybutyl] (3R)-3-butanoyloxybutanoate] | – | – | C (>75% of the tested compound remaining) | A (<25% of the tested compound remaining) |
| CC(=O)Oc1cc(OC(C)=O)c2c(=O)c(OC(C)=O)c(-c3cc(OC(C)=O)c(OC(C)=O)c(OC(C)=O)c3)oc2c1 [Example 177, [3,5-diacetoxy-4-oxo-2-(3,4,5-triacetoxyphenyl)chromen-7-yl] acetate] | – | – | C (>75% of the tested compound remaining) | A (<25% of the tested compound remaining) |
| CC(=O)OCC[C@@H](C)OC(=O)Oc1ccc(/C=C/c2cc(OC(=O)O[C@H](C)CCOC(C)=O)cc(OC(=O)O[C@H](C)CCOC(C)=O)c2)cc1 [Example 178, [(3R)-3-[4-[(E)-2-[3,5-bis[[(1R)-3-acetoxy-1-methyl-propoxy]carbonyloxy]phenyl]vinyl]phenoxy]carbonyloxybutyl] acetate] | – | – | C (>75% of the tested compound remaining) | A (<25% of the tested compound remaining) |
| CC(=O)OC[C@H]1O[C@@H](Oc2c(C)c(C)c3c(c2C)CC[C@@](C)(CCC[C@H](C)CCC[C@H](C)CCCC(C)C)O3)[C@H](OC(C)=O)[C@@H](OC(C)=O)[C@@H]1OC(C)=O [Example 180, [(2R,3R,4S,5R,6S)-3,4,5-triacetoxy-6-[(2R)-2,5,7,8-tetramethyl-2-[(4R,8R)-4,8,12-trimethyltridecyl]chroman-6-yl]oxy-tetrahydropyran-2-yl]methyl acetate] | – | – | C (>75% of the tested compound remaining) | C (>75% of the tested compound remaining) |
| C[C@@H]1CCOC(C)(C(=O)Oc2ccc(/C=C/c3cc(OC(=O)C4(C)OCC[C@@H](C)O4)cc(OC(=O)C4(C)OCC[C@@H](C)O4)c3)cc2)O1 (stereo partly drawn) [Example 182, [4-[(E)-2-[3,5-bis[[(4R)-2,4-dimethyl-1,3-dioxane-2-carbonyl]oxy]phenyl]vinyl]phenyl] (4R)-2,4-dimethyl-1,3-dioxane-2-carboxylate] | – | – | C (>75% of the tested compound remaining) | C (>75% of the tested compound remaining) |
| Cc1c(C)c2c(c(C)c1OC(=O)C1OCC[C@@H](C)O1)CC[C@@](C)(CCC[C@H](C)CCC[C@H](C)CCCC(C)C)O2 (stereo partly drawn) [Example 183, [(2R)-2,5,7,8-tetramethyl-2-[(4R,8R)-4,8,12-trimethyltridecyl]chroman-6-yl] (4R)-4-methyl-1,3-dioxane-2-carboxylate] | – | – | C (>75% of the tested compound remaining) | A (<25% of the tested compound remaining) |
| C=C1CC[C@H](OC(=O)[C@H](OC(=O)CCC)[C@@H](OC(=O)CCC)[C@H](OC(=O)CCC)[C@@H](COC(=O)CCC)OC(=O)CCC)C/C1=C/C=C1\CCC[C@]2(C)[C@@H]([C@H](C)CCCC(C)C)CC[C@@H]12 [Example 184, [(1S,3Z)-3-[(2E)-2-[(1R,3aS,7aR)-1-[(1R)-1,5-dimethylhexyl]-7a-methyl-2,3,3a,5,6,7-hexahydro-1H-inden-4-ylidene]ethylidene]-4-methylene-cyclohexyl] (2R,3S,4R,5R)-2,3,4,5,6-penta(butanoyloxy)hexanoate] | – | – | B (25-75% of the tested compound remaining) | A (<25% of the tested compound remaining) |
| C=C1CC[C@H](OC(=O)C2OCC[C@@H](C)O2)C/C1=C/C=C1\CCC[C@]2(C)[C@@H]([C@H](C)CCCC(C)C)CC[C@@H]12 (stereo partly drawn) [Example 186, [(1S,3Z)-3-[(2E)-2-[(1R,3aS,7aR)-1-[(1R)-1,5-dimethylhexyl]-7a-methyl-2,3,3a,5,6,7-hexahydro-1H-inden-4-ylidene]ethylidene]-4-methylene-cyclohexyl] (4R)-4-methyl-1,3-dioxane-2-carboxylate] | – | – | C (>75% of the tested compound remaining) | C (>75% of the tested compound remaining) |
| C=C1CC[C@H](OC(=O)C2(C)OCC[C@@H](C)O2)C/C1=C/C=C1\CCC[C@]2(C)[C@@H]([C@H](C)CCCC(C)C)CC[C@@H]12 (stereo partly drawn) [Example 187, [(1S,3Z)-3-[(2E)-2-[(1R,3aS,7aR)-1-[(1R)-1,5-dimethylhexyl]-7a-methyl-2,3,3a,5,6,7-hexahydro-1H-inden-4-ylidene]ethylidene]-4-methylene-cyclohexyl] (4R)-2,4-dimethyl-1,3-dioxane-2-carboxylate] | – | – | B (25-75% of the tested compound remaining) | C (>75% of the tested compound remaining) |
